Reference: patent publication US6395745B1, “Alkaloid halide salts of swainsonine and methods of use” (priority 1997, dated 2002)

Tests used:
[1] = Solubility in distilled water at room temperature; type: physicochemical
Protocol: The melting point of the clear swainsonine hydrochloride crystal (prism) was 190-191° C. The solubility of swainsonine hydrochloride in distilled water at room temperature was about 3 g/ml, in contrast to the solubility of swainsonine free base, which is about 0.8 g/ml (see Table 5).

[2] = Preformulation solubility in vehicles; type: physicochemical
Protocol: Preformulation studies of swainsonine hydrochloride, bulk drug substance, and in combination with powder and semisolid fill gelatin capsules were conducted with respect to the following: hygroscopicity, pH, stability, and solubility. […] At 20% and 50% RH it absorbed 1.9% and 2.1% of water by Karl Fischer after 48 hours of storage. The moisture uptake diminishes when anhydrous powder excipients (e.g. lactose anhydrous and mannitol powder) are used to formulate the pharmaceutical active into a hard capsule.
Therefore for soft gelatin capsule formulations hydrophilic vehicles are preferred. The use of a co-solvent such as glycerin or propylene glycol in PEGs may be feasible for liquid or semisolid fills.

[3] = test system: SP1.A3a mouse mammary carcinoma cells; experiment: Growth factor dependent proliferation of SP1.A3a cells in vitro (tritiated thymidine); type: cell-based; settings: 0.2 μg/ml, FIG. 7
Protocol: SP1.A3a mouse mammary carcinoma cells were grown for 24 hours in culture medium containing 10% bovine serum, with and without swainsonine hydrochloride at a concentration of 0.2 μg/ml. In the following 24 hours cells were maintained in serum-free medium (SFM) with and without swainsonine hydrochloride. Cells were then grown in the absence of growth factors for 6 hours, or exposed to one of the following growth factors: TNFα (tumor necrosis factor-α), TGFβ1 (transforming growth factor-β), TGFα, platelet-derived growth factor (PDGF), epidermal growth factor (EGF). Tritiated thymidine was added for a final 18 hours, cells were harvested using a multiple-cell harvester and radioactivity was measured in a β-counter as a measure of cell proliferation.

## Cl.O[C@H]1[C@H]2[C@H](O)CCCN2C[C@@H]1O [swainsonine hydrochloride, (−)-(1S,2S,8R,8aR)-1,2,8-trihydroxyoctahydro-indolizidine hydrochloride salt]
[1]; Table 5
  solubility in distilled water at room temperature: 3000 mg/mL
[1]; distilled water, room temperature
  solubility in distilled water at room temperature: about 3 g/ml
[2]
  solubility in aqueous and hydrophilic vehicles: highly soluble
[3]
  TGF-β1 and TNF-α dependent growth stimulation of SP1.A3a cells: suppresses
